We go through 14 compounds from patent US7576086B2, “Aralkyl-alcohol peiperazine derivatives and their uses as antidepressant” (Shanghai Institute of Pharmaceutical Industry, priority 2002, dated 2009).

Data set [1] relates to Brain Synaptosome Uptake of NA. Nature of the data set: Inhibition of [3H]-NA uptake by brain synaptosomes. The format is biochemical, rats. As to conditions: 0.1 mmol/L; rat frontal cortex synaptosomes; inhibited ratio by Desipramine counts 100%. From the text: (§1) The trial of uptaking the mono-amines neurotransmitter by synaptosomes is now one of the common method to study the central nervous pharmacology. This method is not only used to study the action mechanism of the medicament, but also to look for new antidepressant drugs which act on this tache. […] The method is recounted as follows:
(§2) (1). Preparation of synaptosomes. According to the described method by literatures (a. Biochem Pharmacol 1973, 22: 311-322, b. Methods in Neurochemistry, Vol. 2, New York: Marcel Dakker, Inc, 1972, 1-52), rats were decapitated, the brains rapidly excised, and frontal cortex dissected out on ice-cold saline (4° C.). The 3 g tissue was homogenized in 30 ml of ice-cold 0.32M sucrose and then centrifuged (1500 g) for 10 min (4° C.). The pellet was discarded and the supernatant centrifuged (20000 g) for 30 min (4° C.). After refined, the pellet was resuspended in buffer and immediately used. Protein content was deter mined with kit of total protein.
(§3) (2). Uptake of 5-HT. According to the described method by literatures (Br J Pharmacol, 1997, 122: 302-306; b. 1992, 105: 147-151), in the tubes, 1.0 ml artificial cerebral fluid, 20 μl suspension of synaptosomes and 10 μl solution of compound were added. After mixing, the tubes were incubated 5 min in 37° C. Uptake was started by addition of 10 μl [^3H]-5-HT or [^3H]-NA (300 nM), after another mixing, the tubes were incubated again 5 min in 37° C. The reaction was stopped by cooling the tubes in ice, the samples were then filtered through glass fibre filters and washed twice with artificial cerebral fluid. After drying in 60-70° C., the filter membranes were put into scintillation tubes. Filter-bound radioactivity was counted by scintillation spectrometry. The difference in [^3H]-5-HT or [^3H]-NA at 37° C. and 0° C. was taken as a measure of active uptake.

For data set [2], the system named is mouse. The data set can be described thus: Tail suspension test of behavioural despair. The format is in vivo. The note with it: control 89.7±38.27. The protocol:
(§4) Using the tail suspension test of “behavioural despair” and the mouse forced swimming test, and choosing Desipra mine as control medicament, to study the primary antidepressant effect of IV-19 that has the strong inhibited effect for both uptake of 5-HT and NA. The results are as follows:
(1). In the tail suspension test, IV-19 can diminish obviously the immobile times of mouse due to despair. The effect induced by 50 mg/kg IV-19 (20.2±16.05 sec) is the same as 10 mg/kg Desipra mine (27.5±21.93 sec), but a significant difference occurs when comparing with control (89.7±38.27).

Data set [3] relates to mouse. Nature of the data set: Mouse forced swimming test. The format is in vivo. As to conditions: control 93.4±27.36. Here is the method: as §4
(2). In the mouse forced swimming test, IV-19 also can diminish obviously the immobile times of mouse in water due to despair. As the results of tail suspension test, the effect induced by 50 mg/kg IV-19 (46.3±30.2 sec) is the same as 10 mg/kg Desipra mine (46±27.36 sec), but a significant difference occurs when comparing with control (93.4±27.36).

In data set [4] the test system is Brain Synaptosome Uptake of 5-HT. The data set can be described thus: Inhibition of [3H]-5-HT uptake by brain synaptosomes. The data set is classed as biochemical, rats. The note with it: 0.1 mmol/L; rat frontal cortex synaptosomes; inhibited ratio by Fluoxetine counts 100%.
From the text: as §1, §2, §3

For another data set, the system named is mice. Nature of the data set: Acute toxicity. The format is in vivo. The note with it: p.o. in mice, calculated with Bliss.
Data set [5] concerns S. Typhimurium TA97, TA98, TA100 and TA102. Nature of the data set: Bacterial reverse-mutation assay (Ames TS). The data set is classed as cell-based. The text has this: 4. Bacterial reverse-mutation assay (Ames TS) of IV-19
Bacillus: S. Typhimurium TA97, TA98, TA100 and TA102
All tested doses didn't induce the evident increase of revertants, Ames TS of […] is negative.

As for `CNCCCN1c2ccccc2CCc2ccccc21` [Desipra mine, reference compound], the “Inhibited ratio of uptake for NA(%)” value in data set [1] is listed as 100%. The “immobile times of mouse, tail suspension test” value in the data set on mouse [2] (10 mg/kg) was found to be 27.5 ± 21.93 s. In the data set with mouse [3] (10 mg/kg), the “immobile times of mouse in water, forced swimming test” value came out at 46 ± 27.36 s.
`Cl.Cl.OC(c1ccccc1)C(c1ccccc1)N1CCN(Cc2ccccc2)CC1` (centres unmarked) [IV-8, N^1-benzyl-N^4-[(1,2-diphenyl)ethyl-2-ol] piperazine dihydrochloride]: the “Inhibited ratio of uptake for 5-HT(%)” value in data set [4] is reported as below 10%. For the same compound, the “Inhibited ratio of uptake for NA(%)” value in data set [1] was 104%.
For `Cl.Cl.OC(CN1CCN(Cc2ccc(F)cc2)CC1)c1ccc(Cl)cc1` (centres unmarked) [IV-11, N^1-(4-fluorobenzyl)-N^4-[2-(4-chlorophenyl)ethyl-2-ol] piperazine dihydrochloride] the same measures were 81% and 101%.
Turning to `COc1ccc2cc(C(O)C(C)N3CCN(c4cccc(Cl)c4)CC3)ccc2c1Cl.Cl.Cl` (centres unmarked) [IV-17, N^1-(3-chlorophenyl)-N^4-[1-(5-chloro-6-methoxyl-naphthalen-2-yl)-propane-2-yl-1-ol] piperazine dihydrochloride], the “Inhibited ratio of uptake for 5-HT(%)” value in data set [4] is listed as 99%. Moreover, in data set [1], the “Inhibited ratio of uptake for NA(%)” value was 30%.
For `COc1ccc2cc(C(O)C(C)N3CCN(CC(O)c4ccccc4)CC3)ccc2c1Cl.Cl.Cl` (centres unmarked) [IV-18, N^1-(2-phenylethyl-2-ol)-N^4-[1-(5-chloro-6-methoxyl-naphthalen-2-yl)-propane-2-yl-1-ol] piperazine dihydrochloride], in that order: 127% and 23%.
`COc1ccc2cc(C(O)C(C)N3CCN(Cc4ccc([N+](=O)[O-])cc4)CC3)ccc2c1Cl.Cl.Cl` (centres unmarked) [IV-20, N^1-(4-nitrobenzyl)-N^4-[1-(5-chloro-6-methoxyl-naphthalen-2-yl)-propane-2-yl-1-ol] piperazine dihydrochloride]: the “Inhibited ratio of uptake for 5-HT(%)” value in data set [4] came to 110%. Moreover, the “Inhibited ratio of uptake for NA(%)” value in data set [1] came out at 108%.
Take `COc1cc(CN2CCN(C(C)C(O)c3ccc4c(Cl)c(OC)ccc4c3)CC2)cc(OC)c1OC.Cl.Cl` (centres unmarked) [IV-22, N^1-(3,4,5-trimethoxybenzyl)-N^4-[1-(5-chloro-6-methoxyl-naphthalen-2-yl)-propane-2-yl-1-ol] piperazine dihydrochloride]: the “Inhibited ratio of uptake for 5-HT(%)” value in data set [4] came out at 116%. Also, in data set [1], the “Inhibited ratio of uptake for NA(%)” value was 77%.
As to “N^1-(4-chlorobenzyl)-N^4-(phenylpropane-2-yl-3-ol) piperazine dihydrochloride [IV-2]”, the “Inhibited ratio of uptake for 5-HT(%)” value in data set [4] is listed as 82%. In data set [1], the “Inhibited ratio of uptake for NA(%)” value is 62%.
As for “N^1-(4-fluorobenzyl)-N^4-(2-phenylethyl-2-ol) piperazine dihydrochloride [IV-6]”, the “Inhibited ratio of uptake for 5-HT(%)” value in data set [4] came out at 79%. Besides, the “Inhibited ratio of uptake for NA(%)” value in data set [1] is reported as 107%.
For the compound “N^1-(4-nitrobenzyl)-N^4-(2-phenylethyl-2-ol) piperazine dihydrochloride [IV-26]”, the “Inhibited ratio of uptake for 5-HT(%)” value in data set [4] was determined as 63%. In data set [1], the “Inhibited ratio of uptake for NA(%)” value came out at 80%.
For “N^1-(R-1-phenylethyl)-N^4-[1-(5-chloro-6-methoxyl-naphthalen-2-yl)-propane-2-yl-1-ol] piperazine dihydrochloride [IV-35]”, in that order: 107% and 58%.
Regarding “N^1-(S-1-phenylethyl)-N^4-[1-(5-chloro-6-methoxyl-naphthalen-2-yl)-propane-2-yl-1-ol] piperazine dihydrochloride [IV-34]”, the “Inhibited ratio of uptake for 5-HT(%)” value in data set [4] is on record as 108%. In data set [1], the “Inhibited ratio of uptake for NA(%)” value was found to be 10%.
On to “N^1-benzyl-N^4-[1-(5-chloro-6-methoxyl-naphthalen-2-yl)-propane-2-yl-1-ol] piperazine dihydrochloride [IV-19]”, for which the “Inhibited ratio of uptake for 5-HT(%)” value in data set [4] turned out to be 114%. Also, in data set [1], the “Inhibited ratio of uptake for NA(%)” value is recorded as 140%. In the data set with mouse [2] (50 mg/kg), the “immobile times of mouse, tail suspension test” value was 20.2 ± 16.05 s. Moreover, the “immobile times of mouse in water, forced swimming test” value with mouse [3] (50 mg/kg) stood at 46.3 ± 30.2 s. Moreover, the LD50 result in the data set on mice is “about 1 g/kg”. In data set [5] (TA97, TA98, TA100, TA102, without S9 and with S9, all tested doses), the “Ames TS result (increase of revertants)” value was “negative”. Also, the “inhibitory effect for the growth of bacteria” value is “inhibitory effect” in data set [5] (TA97, with S9, 5000 μg/utensil) and “inhibitory effect” in data set [5] (TA98, without S9, 5000 μg/utensil).
“N^1-benzyl-N^4-[2-(4-chlorophenyl)ethyl-2-ol] piperazine dihydrochloride [IV-4]”: the “Inhibited ratio of uptake for 5-HT(%)” value in data set [4] is 85%. Besides, the “Inhibited ratio of uptake for NA(%)” value in data set [1] amounted to 51%.
